Here are results for 15 molecules from US9745339B2 (GRAFFINITY PHARMACEUTICALS GMBH, priority 2012, dated 2017).

Each structure is given as a SMILES string.

What all share (details): L55-73: estimated values based on the knowledge obtained from L01-L54
One test deals with T1, Bevacizumab (Homo sapiens, UniProt P01857).
T1 construct: 0.5 mg/ml IgG in PBS pH 7.3; ligand immobilized on SEPHAR; Bevacizumab Yield; other: mass eluted (glycine pH 2.5) / mass injected; kd (dissociation constant, Langmuir isotherm); other: Bevacizumab 0.05-5 mg/ml in PBS pH 7.3, 25° C., at least 3 h; qm (maximum capacity); other: mg Bevacizumab per ml of resin; Langmuir isotherm; t0; fused on or other part: Humanized anti-VEGF-A VH domain joined N-terminally to the IGHG1 constant region (engineered, no UniProt entry)
Put plainly: Microtiter plate chromatography of resins: binding and elution of Bevacizumab. The protocol:
(§1) Resins were assessed in packed mode by microtiter plate chromatography. For each column, approximately 30 μl of resin were transferred to a 384-well filter plate and sealed with appropriate top fits. Columns with rProtein A SEPHAROSE 4 FF and MABSORBENT A2P HF were included as controls.
(§2) Either 3.3 cv of whole IgGs dissolved at 0.5 mg ml^−1 in PBS or undiluted host cell proteins (HCP) were injected onto columns.
(§3) Unbound protein was washed from columns with 5 cv of PBS prior to elution with 5 cv of glycine buffer at pH 2.5. […] During injection of samples, speed was reduced to 10 g and centrifugation time increased to 5-10 min. Effluent fractions were collected in 384-well plates and concentrations of protein were analyzed by Bradford assay. Protein masses mi, mft and me (see below) were calculated as the product of fraction volume and measured protein concentration.
(§4) The fraction of bound protein was calculated as the difference between the total mass of protein injected mi and the mass of protein detected in the flowthrough mft, divided by the total mass of protein injected.
(§5) The yield of protein was calculated as the mass of protein eluted me, divided by the mass of protein injected mi.
The selectivity of resins was calculated as the fraction of bound Bevacizumab antibody BAb, divided by the fraction of bound host cell proteins BHCP.
(§6) The fraction of bound protein and the yield of protein were calculated for each resin based on data for whole IgG-antibodies. In the case of host cell proteins, only the fraction of bound protein is given. Selectivity of resins was calculated from data for Bevacizumab whole IgG and host cell proteins. Due to limited experimental precision, selectivity was truncated for values beyond 10.

Another test deals with Tocilizumab. Put plainly: Microtiter plate chromatography of resins: binding and elution of Tocilizumab. As for the experimental part: as §1, §2, §3, §4, §5, §6
A further test relates to Palivizumab. Put plainly: Microtiter plate chromatography of resins: binding and elution of Palivizumab. The protocol:
as §1, §2, §3, §4, §5, §6

A further test has as its system Cetuximab. Nature of the test: Microtiter plate chromatography of resins: binding and elution of Cetuximab. As for the experimental part: as §1, §2, §3, §4, §5, §6
Test [1] deals with poly-IgG from human serum (h-poly-IgG). Nature of the test: Microtiter plate chromatography of resins: binding and elution of human poly-IgG. The protocol: as §1, §2, §3, §4, §5, §6
In the next test the test system is host cell proteins (HCP). Nature of the test: Microtiter plate chromatography of resins: binding of host cell proteins. Also on record: species or system CHO cell culture. The protocol: Flowthrough from protein A chromatography (referred to as host cell proteins) was derived from the supernatant of antibody-producing CHO cell culture in serum-free medium. Coomassie brilliant blue dye reagent for Bradford assay was purchased from Thermo Scientific (Bonn/Germany).
as §1, §2, §3, §4, §6

Regarding `Cc1nc2cc(C(=O)Nc3ccc(-c4ccco4)nn3)ccc2n1CCCN` [Ligand L64, 1-(3-Amino-1-propyl)-2-methylbenzimidazole-5-carboxylic acid N-[6-(2-furyl)pyridazin-3-yl] amide], on Bevacizumab, the “Bevacizumab Bound” value is given as 100% and the “Bevacizumab Yield” value is reported as over 80%. The “Tocilizumab Bound” value in the test on Tocilizumab was over 90%. In the test with Palivizumab, the “Palivizumab Bound” value was over 60%. Besides, the “Cetuximab Bound” value with Cetuximab is reported as over 95%. Also, the “h-poly-IgG Bound” value in test [1] was over 80%. Besides, in the test on host cell proteins (HCP), the “HCP Bound” value is recorded as under 20%.

Turning to `NCCCn1cnc2cc(C(=O)Nc3nc(-c4ccco4)cs3)ccc21` [Ligand L57, 1-(3-Amino-1-propyl)benzimidazole-5-carboxylic acid N-[4-(2-furyl)thiazol-2-yl] amide], at Bevacizumab, the “Bevacizumab Bound” value is on record as 100% and the “Bevacizumab Yield” value is over 80%. The “Tocilizumab Bound” value in the test with Tocilizumab is over 95%. The “Palivizumab Bound” value in the test with Palivizumab is recorded as over 80%. In the test on Cetuximab, the “Cetuximab Bound” value was 100%. Further, the “h-poly-IgG Bound” value in test [1] was over 80%. Besides, in the test on host cell proteins (HCP), the “HCP Bound” value is on record as under 40%.

With `NCCCn1cnc2cc(C(=O)Nc3ccc(-c4ccco4)nn3)ccc21` [Ligand L59, 1-(3-Amino-1-propyl)benzimidazole-5-carboxylic acid N-[6-(2-furyl)pyridazin-3-yl] amide], on Bevacizumab, the “Bevacizumab Bound” value is 100% and the “Bevacizumab Yield” value is given as over 80%. For the same molecule, in the test on Tocilizumab, the “Tocilizumab Bound” value was over 90%. Further, the “Palivizumab Bound” value with Palivizumab was over 60%. The “Cetuximab Bound” value in the test with Cetuximab is reported as over 95%. In test [1], the “h-poly-IgG Bound” value is over 80%. In addition, the “HCP Bound” value with host cell proteins (HCP) is given as under 40%.

Consider `NCCCn1cnc2cc(C(=O)Nc3nc(-c4ccco4)ns3)ccc21` [Ligand L55, 1-(3-Amino-1-propyl)benzimidazole-5-carboxylic acid N-[3-(2-furyl)-1,2,4-thiadiazol-5-yl] amide], for which, at Bevacizumab, the “Bevacizumab Bound” value is recorded as 100% and the “Bevacizumab Yield” value was over 80%. The “Tocilizumab Bound” value in the test with Tocilizumab is on record as over 95%. In addition, the “Palivizumab Bound” value with Palivizumab is recorded as over 80%. In the test with Cetuximab, the “Cetuximab Bound” value is listed as 100%. Besides, the “h-poly-IgG Bound” value in test [1] is recorded as over 80%. Besides, the “HCP Bound” value with host cell proteins (HCP) is listed as under 40%.

As to `Cc1nc2cc(C(=O)Nc3nnc(-c4cnco4)s3)ccc2n1CCCN` [Ligand L72, 1-(3-Amino-1-propyl)-2-methylbenzimidazole-5-carboxylic acid N-[5-(5-oxazolyl)-1,3,4-thiadiazol-2-yl] amide], at Bevacizumab, the “Bevacizumab Bound” value is listed as 100% and the “Bevacizumab Yield” value was over 80%. In addition, the “Tocilizumab Bound” value in the test with Tocilizumab is given as over 90%. For the same molecule, in the test on Palivizumab, the “Palivizumab Bound” value is on record as over 60%. Moreover, the “Cetuximab Bound” value in the test with Cetuximab is listed as over 95%. In test [1], the “h-poly-IgG Bound” value is recorded as over 80%. Further, in the test on host cell proteins (HCP), the “HCP Bound” value was under 20%.

For `NCCCn1cnc2cc(C(=O)Nc3nnc(-c4ccoc4)s3)ccc21` [Ligand L56, 1-(3-Amino-1-propyl)benzimidazole-5-carboxylic acid N-[5-(3-furyl)-1,3,4-thiadiazol-2-yl] amide], on Bevacizumab, the “Bevacizumab Bound” value is 100% and the “Bevacizumab Yield” value is listed as over 80%. For the same molecule, the “Tocilizumab Bound” value in the test on Tocilizumab is listed as over 95%. Further, the “Palivizumab Bound” value in the test with Palivizumab was over 80%. In the test on Cetuximab, the “Cetuximab Bound” value is on record as 100%. For the same molecule, in test [1], the “h-poly-IgG Bound” value is over 80%. Further, the “HCP Bound” value in the test with host cell proteins (HCP) was under 40%.

As to `CCc1nc2cc(C(=O)Nc3nc(-c4ccco4)ns3)ccc2n1CCCN` [Ligand L65, 1-(3-Amino-1-propyl)-2-ethylbenzimidazole-5-carboxylic acid N-[3-(2-furyl)-1,2,4-thiadiazol-5-yl] amide], at Bevacizumab, the “Bevacizumab Bound” value is on record as 100% and the “Bevacizumab Yield” value is over 80%. Also, the “Tocilizumab Bound” value in the test on Tocilizumab is recorded as over 95%. For the same molecule, the “Palivizumab Bound” value in the test on Palivizumab is over 80%. Besides, the “Cetuximab Bound” value in the test with Cetuximab is 100%. Besides, the “h-poly-IgG Bound” value in test [1] is reported as over 80%. Besides, in the test with host cell proteins (HCP), the “HCP Bound” value is recorded as under 30%.

Take `CCc1nc2cc(C(=O)Nc3nc(-c4ccco4)cs3)ccc2n1CCCN` [Ligand L67, 1-(3-Amino-1-propyl)-2-ethylbenzimidazole-5-carboxylic acid N-[4-(2-furyl)thiazol-2-yl] amide]: at Bevacizumab, the “Bevacizumab Bound” value was 100% and the “Bevacizumab Yield” value is listed as over 80%. Besides, the “Tocilizumab Bound” value with Tocilizumab is reported as over 95%. Further, the “Palivizumab Bound” value in the test on Palivizumab is reported as over 80%. The “Cetuximab Bound” value in the test on Cetuximab was 100%. Further, in test [1], the “h-poly-IgG Bound” value is listed as over 80%. Further, the “HCP Bound” value with host cell proteins (HCP) is reported as under 30%.

Take `Cc1nc2cc(C(=O)Nc3nc(-c4ccco4)cs3)ccc2n1CCCN` [Ligand L62, 1-(3-Amino-1-propyl)-2-methylbenzimidazole-5-carboxylic acid N-[4-(2-furyl)thiazol-2-yl] amide]: on Bevacizumab, the “Bevacizumab Bound” value is given as 100% and the “Bevacizumab Yield” value was over 80%. Moreover, in the test on Tocilizumab, the “Tocilizumab Bound” value is listed as over 95%. In the test on Palivizumab, the “Palivizumab Bound” value was over 80%. Moreover, in the test on Cetuximab, the “Cetuximab Bound” value is listed as 100%. For the same molecule, the “h-poly-IgG Bound” value in test [1] was over 80%. Moreover, the “HCP Bound” value in the test on host cell proteins (HCP) was under 40%.

Consider `NCCCn1cnc2cc(C(=O)Nc3ncc(-c4ccco4)s3)ccc21` [Ligand L58, 1-(3-Amino-1-propyl)benzimidazole-5-carboxylic acid N-[5-(2-furyl)thiazol-2-yl] amide], for which, at Bevacizumab, the “Bevacizumab Bound” value is recorded as 100% and the “Bevacizumab Yield” value is over 80%. Besides, the “Tocilizumab Bound” value with Tocilizumab was over 95%. Moreover, in the test with Palivizumab, the “Palivizumab Bound” value is on record as over 80%. The “Cetuximab Bound” value in the test with Cetuximab is on record as 100%. Moreover, the “h-poly-IgG Bound” value in test [1] is on record as over 80%. The “HCP Bound” value in the test on host cell proteins (HCP) was under 40%.

Consider `Cc1nc2cc(C(=O)Nc3nc(-c4ccco4)ns3)ccc2n1CCCN` [Ligand L60, 1-(3-Amino-1-propyl)-2-methylbenzimidazole-5-carboxylic acid N-[3-(2-furyl)-1,2,4-thiadiazol-5-yl] amide], for which, on Bevacizumab, the “Bevacizumab Bound” value was 100% and the “Bevacizumab Yield” value is recorded as over 80%. Moreover, the “Tocilizumab Bound” value with Tocilizumab was over 95%. In addition, in the test with Palivizumab, the “Palivizumab Bound” value was over 80%. Further, the “Cetuximab Bound” value in the test on Cetuximab is 100%. For the same molecule, the “h-poly-IgG Bound” value in test [1] is given as over 80%. In addition, the “HCP Bound” value in the test on host cell proteins (HCP) was under 40%.

As for `Cc1nc2cc(C(=O)Nc3nnc(-c4ccno4)s3)ccc2n1CCCN` [Ligand L71, 1-(3-Amino-1-propyl)-2-methylbenzimidazole-5-carboxylic acid N-[5-(5-isoxazolyl)-1,3,4-thiadiazol-2-yl] amide], at Bevacizumab, the “Bevacizumab Bound” value is listed as 100% and the “Bevacizumab Yield” value is recorded as over 80%. Also, the “Tocilizumab Bound” value with Tocilizumab was over 90%. In addition, in the test with Palivizumab, the “Palivizumab Bound” value was over 60%. In the test on Cetuximab, the “Cetuximab Bound” value is listed as over 95%. Also, in test [1], the “h-poly-IgG Bound” value was over 80%. Also, the “HCP Bound” value in the test on host cell proteins (HCP) was under 20%.

For the molecule `CCc1nc2cc(C(=O)Nc3nnc(-c4ccoc4)s3)ccc2n1CCCN` [Ligand L66, 1-(3-Amino-1-propyl)-2-ethylbenzimidazole-5-carboxylic acid N-[5-(3-furyl)-1,3,4-thiadiazol-2-yl] amide], on Bevacizumab, the “Bevacizumab Bound” value is given as 100% and the “Bevacizumab Yield” value is over 80%. In the test on Tocilizumab, the “Tocilizumab Bound” value was over 95%. Also, in the test with Palivizumab, the “Palivizumab Bound” value is recorded as over 80%. For the same molecule, the “Cetuximab Bound” value with Cetuximab is 100%. In addition, the “h-poly-IgG Bound” value in test [1] was over 80%. Besides, the “HCP Bound” value in the test with host cell proteins (HCP) is under 30%.

As to `NCCCNc1nc(-c2ccc(C(=O)Nc3nnc(-c4ccco4)s3)cc2)cs1` [Ligand L70, 4-[2-(3-Amino-1-propylamino)thiazol-4-yl]benzoic acid N-[5-(2-furyl)-1,3,4-thiadiazol-2-yl]amide], on Bevacizumab, the “Bevacizumab Bound” value is listed as 100% and the “Bevacizumab Yield” value is over 80%. Moreover, the “Tocilizumab Bound” value with Tocilizumab is over 80%. The “Palivizumab Bound” value with Palivizumab is over 50%. For the same molecule, in the test on Cetuximab, the “Cetuximab Bound” value is over 80%. Besides, the “h-poly-IgG Bound” value in test [1] was over 80%. For the same molecule, the “HCP Bound” value in the test with host cell proteins (HCP) is listed as under 40%.

Take `CCc1nc2cc(C(=O)Nc3ncc(-c4ccco4)s3)ccc2n1CCCN` [Ligand L68, 1-(3-Amino-1-propyl)-2-ethylbenzimidazole-5-carboxylic acid N-[5-(2-furyl)thiazol-2-yl] amide]: on Bevacizumab, the “Bevacizumab Bound” value is on record as 100% and the “Bevacizumab Yield” value is over 80%. The “Tocilizumab Bound” value in the test on Tocilizumab is over 95%. Moreover, the “Palivizumab Bound” value in the test with Palivizumab is over 80%. Further, the “Cetuximab Bound” value in the test on Cetuximab was 100%. The “h-poly-IgG Bound” value in test [1] is recorded as over 80%. In addition, in the test with host cell proteins (HCP), the “HCP Bound” value is reported as under 30%.
